The EC50 is the concentration at which the effect is half-maximal. One may read the mortality as the percentage killed.

Some results are limits rather than exact numbers.

We go through 22 compounds from patent US10889573B2, “Anthelmintic quinoline-3-carboxamide derivatives” (Bayer Animal Health GMBH, priority 2016, dated 2021).

Series [1] is described as follows: log P by HPLC on reversed phase columns (Method L0). To be noted: HPLC on reversed phase columns, Method L0.
Procedure: Measurement of log P values was performed according to EEC directive 79/831 Annex V.A8 by HPLC (High Performance Liquid Chromatography) on reversed phase columns with the following methods: • ^[a] log P value is determined by measurement of LC-UV, in an acidic range, with 0.1% formic acid in water and acetonitrile as eluent (linear gradient from 10% acetonitrile to 95% acetonitrile). • ^[b] log P value is determined by measurement of LC-UV, in a neutral range, with 0.001 molar ammonium acetate solution in water and acetonitrile as eluent (linear gradient from 10% acetonitrile to 95% acetonitrile).
Calibration was done with straight-chain alkan-2-ones (with 3 to 16 carbon atoms) with known log P values (measurement of log P values using retention times with linear interpolation between successive alkanones).
For series [2], the system named is Dirofilaria immitis microfilariae. The series can be described thus: In vitro assay 3: Dirofilaria immitis microfilariae (DIROIM L1), motility. To be noted: 72 h, read-out: EC50 (reduction of motility), 72 h incubation.
The subject of another series is Cooperia curticei. To be noted: Cooperia curticei, 120 h, read-out: activity (larval mortality).
Another series relates to Haemonchus contortus. Particulars: 120 h, read-out: activity (larval mortality).
Series [3] relates to Dirofilaria immitis third-stage larvae. The series can be described thus: In vitro assay 4: Dirofilaria immitis (DIROIM L4), motility. To be noted: 72 h, read-out: EC50 (reduction of motility).
The subject of series [4] is Nippostrongylus brasiliensis. Nature of the series: In vitro assay 2: Nippostrongylus brasiliensis (NIPOBR), acetylcholine esterase readout. Particulars: read-out: activity (reduction of AChE compared to negative control); for inhibition at 1 µg/mL: 1 μg/ml. The essentials:
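Readout was acetylcholine esterase activity released into the medium, compared with negative control, after exposing adult worms to compounds at final 10 ppm (10 μg/ml) or 1 ppm (1 μg/ml). Worms were first washed in antibiotic/amphotericin B-containing saline; compounds were dissolved in DMSO.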

A further series addresses C. elegans Slo-1a (Caenorhabditis elegans, UniProt Q95V25). Particulars: pE50 (negative decadic logarithm of EC50), CHO cells expressing C. elegans Slo-1a, voltage sensitive dye.

Chain of C. elegans Slo-1a (Q95V25 whole entry): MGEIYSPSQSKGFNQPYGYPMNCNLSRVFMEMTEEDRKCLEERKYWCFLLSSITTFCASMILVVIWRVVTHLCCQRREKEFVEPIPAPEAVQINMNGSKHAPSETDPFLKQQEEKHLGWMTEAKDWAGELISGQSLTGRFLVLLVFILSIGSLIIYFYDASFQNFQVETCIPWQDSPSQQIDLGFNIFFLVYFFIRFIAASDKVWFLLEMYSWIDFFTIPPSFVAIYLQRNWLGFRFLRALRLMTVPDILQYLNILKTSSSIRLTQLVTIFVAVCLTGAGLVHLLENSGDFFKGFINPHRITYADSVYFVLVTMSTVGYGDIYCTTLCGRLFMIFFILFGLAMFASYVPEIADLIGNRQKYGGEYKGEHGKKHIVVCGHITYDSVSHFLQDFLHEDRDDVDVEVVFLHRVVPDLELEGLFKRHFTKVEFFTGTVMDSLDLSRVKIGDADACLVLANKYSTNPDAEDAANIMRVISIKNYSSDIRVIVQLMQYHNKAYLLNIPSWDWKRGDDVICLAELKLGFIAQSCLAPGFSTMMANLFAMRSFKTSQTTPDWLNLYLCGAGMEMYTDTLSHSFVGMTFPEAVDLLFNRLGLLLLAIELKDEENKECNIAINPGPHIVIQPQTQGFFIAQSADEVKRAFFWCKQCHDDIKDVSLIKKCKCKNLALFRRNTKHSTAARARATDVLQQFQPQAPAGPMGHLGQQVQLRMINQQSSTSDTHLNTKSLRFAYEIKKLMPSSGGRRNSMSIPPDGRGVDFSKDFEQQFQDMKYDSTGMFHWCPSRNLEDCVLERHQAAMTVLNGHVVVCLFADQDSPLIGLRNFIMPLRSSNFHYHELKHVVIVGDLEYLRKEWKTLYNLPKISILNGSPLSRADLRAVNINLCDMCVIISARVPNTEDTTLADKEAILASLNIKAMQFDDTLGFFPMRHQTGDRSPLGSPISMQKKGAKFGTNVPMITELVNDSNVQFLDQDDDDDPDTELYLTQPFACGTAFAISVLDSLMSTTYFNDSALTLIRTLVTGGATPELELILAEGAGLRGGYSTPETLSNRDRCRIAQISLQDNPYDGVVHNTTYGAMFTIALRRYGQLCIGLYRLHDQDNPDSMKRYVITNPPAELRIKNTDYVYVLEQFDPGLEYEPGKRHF
Procedure for Cooperia curticei: In Vitro Assay 6: Cooperia curticei (COOPCU L3)
Solvent: dimethyl sulfoxide
Approximately 40 nematode larvae (Cooperia curticei) are transferred into a test tube containing the compound solution.
After 5 days percentage of larval mortality is recorded. 100% efficacy means all larvae are killed; 0% efficacy means no larvae are killed.
Procedure for Haemonchus contortus: In Vitro Assay 7: Haemonchus contortus (HAEMCO L3)
Solvent: dimethyl sulfoxide
Approximately 40 larvae of the red stomach worm (Haemonchus contortus) are transferred into a test tube containing compound solution.
After 5 days the percentage of larval mortality is recorded. 100% efficacy means all larvae are killed, 0% efficacy means no larvae are killed.

As for `COc1ccc2c(c1)[C@@H](NC(=O)c1cnc3c(-c4cc(Cl)cc(Cl)c4)cccc3c1N(C)C)CCO2` [Example 147], the “logP (Method L0)[a]” value in series [1] was 2.76.

As to `O=C(N[C@H]1CCOc2ccccc21)c1cnc2c(-c3cc(F)cc(F)c3F)c(F)ccc2c1N1CCOCC1` [Example 540], in series [1], the “logP (Method L0)^[a]” value is on record as 3.72.

Take `CN(C)c1c(C(=O)N[C@H]2CCOc3ccccc32)cnc2c(-c3cc(Cl)cc(Cl)c3)cccc12` [Example 8]: the “logP (Method L0)[a]” value in series [1] was 2.53.

As to `CCSc1c(C(=O)N[C@H]2CCOc3ccccc32)cnc2c(-c3cccc(Cl)c3Cl)cccc12` [Example 366], the “logP (Method L0)^[a]” value in series [1] was 4.79.

Take `CCN(CCOC)c1c(C(=O)N[C@H]2CCc3ccccc32)cnc2c(-c3cc(Cl)cc(Cl)c3)cccc12` [Example 90]: the “logP (Method L0)[a]” value in series [1] stood at 4.9.

As for `CN(c1c(C(=O)N[C@H]2CCOc3ccccc32)cnc2c(-c3cccc(Cl)c3Cl)cccc12)C1CC1` [Example 253], the “logP (Method L0)” value in series [1] came to 2.8.

For the compound `CCOP(=O)(CN(C)c1c(C(=O)N[C@H]2CCOc3ccccc32)cnc2c(-c3cc(Cl)cc(Cl)c3)cccc12)OCC` [Example 285], the “logP (Method L0)” value in series [1] stood at 4.62.

For `CCC(CO)Nc1c(C(=O)NC2CCc3ccccc32)cnc2c(-c3cc(Cl)cc(Cl)c3)cccc12` (stereo not drawn) [Example 99-2], the “logP (Method L0)[a]” value in series [1] is recorded as 2.1.

Consider `CN(CCN1CCOCC1)c1c(C(=O)N[C@H]2CCOc3ccccc32)cnc2c(-c3cc(Cl)cc(Cl)c3)cccc12` [Example 149], for which the “logP (Method L0)[a]” value in series [1] worked out at 2.2.

In the case of `O=C(N[C@H]1CCc2ccccc21)c1cnc2c(-c3cc(Cl)cc(Cl)c3)cccc2c1N1CCC(F)(F)C1` [Example 112], the “logP (Method L0)[a]” value in series [1] was 2.6.

Turning to `O=C(N[C@H]1CCOc2ccccc21)c1cnc2c(-c3cc(Cl)ccc3F)c(F)ccc2c1N1CCOCC1` [Example 170], the concentration giving a half-maximal response (EC50) was < 0.1 µg/mL in series [2], < 0.1 µg/mL in series [3] and < 3.16 nM at C. elegans Slo-1a. Further, the mortality at 4 ppm with Cooperia curticei and with Haemonchus contortus was 100% each time. In addition, the mortality at 20 ppm in the series with Cooperia curticei and in the series with Haemonchus contortus was 100% throughout. Moreover, in series [4], the inhibition at 1 µg/mL was > 80%.

Take `CN(C)c1c(C(=O)N[C@H]2CCOc3ccccc32)cnc2c(-c3ccc(F)cc3Cl)c(F)ccc12` [Example 172]: the figures for the EC50 (in series [2]; in series [3]; on C. elegans Slo-1a) were < 0.1 µg/mL, < 0.1 µg/mL and < 3.16 nM, respectively. Moreover, the mortality at 4 ppm with Cooperia curticei came to 100%; with Haemonchus contortus, 80%. Besides, the mortality at 20 ppm in the series on Cooperia curticei and with Haemonchus contortus was 100% throughout. The inhibition at 1 µg/mL in series [4] is > 80%.

On to `CN(C)c1c(C(=O)N[C@H]2CCOc3ccccc32)cnc2c(-c3cc(F)c(F)c(F)c3)cccc12` [Example 47], for which the EC50 in series [2] was < 0.1 µg/mL; in series [3] it was < 0.1 µg/mL; at C. elegans Slo-1a, < 3.16 nM. The values for the mortality at 4 ppm in the series on Cooperia curticei and with Haemonchus contortus were 80% and 90%, respectively. Moreover, the mortality at 20 ppm with Cooperia curticei is 80%; in the series with Haemonchus contortus, 100%. For the same compound, the inhibition at 1 µg/mL in series [4] was > 80%. Moreover, the inhibition at 10 µg/mL in series [4] (10 μg/ml) is > 80%.

Take `CC(C)c1c(C(=O)N[C@H]2CCOc3ccccc32)cnc2c(-c3cc(Cl)cc(Cl)c3)cccc12` [Example 359, 8-(3,5-dichlorophenyl)-N-[(4S)-3,4-dihydro-2H-chromen-4-yl]-4-isopropyl-quinoline-3-carboxamide]: the EC50 in series [2] was < 0.1 µg/mL; in series [3], < 0.1 µg/mL; at C. elegans Slo-1a it was < 3.16 nM. For the same compound, the mortality at 4 ppm in the series with Cooperia curticei and in the series on Haemonchus contortus was 100% each time. Also, the mortality at 20 ppm in the series with Cooperia curticei and with Haemonchus contortus was 100% throughout. Moreover, in series [4], the inhibition at 1 µg/mL was > 80%.

Take `CC(C)c1c(C(=O)N[C@H]2CCOc3ccccc32)cnc2c(-c3cccc(C(F)(F)F)c3F)cccc12` [Example 408]: the EC50 is < 0.1 µg/mL in series [2], < 0.1 µg/mL in series [3] and < 3.16 nM on C. elegans Slo-1a. Further, the mortality at 4 ppm in the series on Cooperia curticei is 100%; with Haemonchus contortus, 90%. Moreover, the mortality at 20 ppm amounted to 100% in the series on Cooperia curticei and 90% in the series on Haemonchus contortus. Also, the inhibition at 1 µg/mL in series [4] was > 80%.

As for `O=C(N[C@H]1CCOc2ccccc21)c1cnc2c(-c3cccc(Cl)c3F)cccc2c1N1CCOCC1` [Example 226], the EC50 was < 0.1 µg/mL in series [2], < 0.1 µg/mL in series [3] and < 3.16 nM on C. elegans Slo-1a. Moreover, the mortality at 4 ppm came to 100% in the series on Cooperia curticei and 90% in the series with Haemonchus contortus. The mortality at 20 ppm with Cooperia curticei and in the series on Haemonchus contortus was 100% in each case. In addition, the inhibition at 1 µg/mL in series [4] is > 80%.

Regarding `O=C(N[C@H]1CCOc2ccccc21)c1cnc2c(-c3cccc4c3OCC4)cccc2c1N1CCOCC1` [Example 204], the 50% effective concentration (EC50) in series [2] is < 0.1 µg/mL; in series [3], < 0.1 µg/mL; on C. elegans Slo-1a, 3.16 to 31.6 nM. In addition, the values for the mortality at 20 ppm in the series on Cooperia curticei and with Haemonchus contortus were 100% and 90%, respectively. Also, in series [4], the inhibition at 1 µg/mL was > 80%.

Consider `COc1ccc(-c2cc(Cl)cc(Cl)c2)c2ncc(C(=O)N[C@H]3CCOc4ccccc43)c(N(C)C)c12` [Example 504], for which the EC50 is < 0.1 µg/mL in series [2], < 0.1 µg/mL in series [3] and < 3.16 nM on C. elegans Slo-1a. For the same compound, the mortality at 4 ppm in the series with Cooperia curticei and with Haemonchus contortus was 100% each time. The mortality at 20 ppm in the series with Cooperia curticei and in the series on Haemonchus contortus was 100% each time. The inhibition at 1 µg/mL in series [4] is > 80%.

For the compound `CCc1c(C(=O)N[C@H]2CCOc3ccccc32)cnc2c(-c3cc(Cl)cc(Cl)c3Cl)cccc12` [Example 573], the figures for the concentration giving a half-maximal response (EC50) (in series [2]; in series [3]; on C. elegans Slo-1a) were < 0.1 µg/mL, < 0.1 µg/mL and 3.16 to 31.6 nM, respectively. Further, the mortality at 4 ppm with Cooperia curticei and in the series with Haemonchus contortus was 100% in each case. Also, the mortality at 20 ppm in the series on Cooperia curticei and with Haemonchus contortus was 100% in each case. Also, in series [4], the inhibition at 1 µg/mL is > 80%.

Regarding `O=C(N[C@H]1CCOc2ccccc21)c1cnc2c(-c3cccc(Cl)c3)cccc2c1N1CCC(O)C1` (mixture of isomers) [Example 260], the 50% effective concentration (EC50) in series [2] was < 0.1 µg/mL; in series [3], < 0.1 µg/mL; on C. elegans Slo-1a, < 3.16 nM. Moreover, the mortality at 4 ppm in the series with Cooperia curticei and with Haemonchus contortus was 80% throughout. In addition, the mortality at 20 ppm in the series on Cooperia curticei and with Haemonchus contortus was 90% each time. Also, in series [4], the inhibition at 1 µg/mL is > 80%.

Consider `O=C(N[C@H]1CCOc2ccccc21)c1cnc2c(-c3cc(Cl)cc(C(F)(F)F)c3)cccc2c1N1CCC(O)C1` (mixture of isomers) [Example 271], for which the EC50 in series [2] is < 0.1 µg/mL; in series [3], < 0.1 µg/mL; on C. elegans Slo-1a it was < 3.16 nM. Moreover, the mortality at 4 ppm in the series on Cooperia curticei and with Haemonchus contortus was 90% each time. The mortality at 20 ppm in the series on Cooperia curticei and in the series with Haemonchus contortus was 90% in each case. The inhibition at 1 µg/mL in series [4] is > 80%.

As to `O=C(N[C@H]1CCOc2ccccc21)c1cnc2c(-c3cc(Cl)cc(C(F)(F)F)c3)cccc2c1N1CCOCC1` [Example 235], the 50% effective concentration (EC50) in series [2] is < 0.1 µg/mL; in series [3], < 0.1 µg/mL; at C. elegans Slo-1a, < 3.16 nM. The mortality at 4 ppm in the series on Cooperia curticei and in the series with Haemonchus contortus was 90% each time. Besides, the mortality at 20 ppm with Cooperia curticei and with Haemonchus contortus was 100% each time. The inhibition at 1 µg/mL in series [4] is > 80%.
